Data: paper PMC7583830 (Molecules, 2020)
Where two headings read alike, the source gives them in different places. Where a SMILES comes first, the peptide text is derived from it. [ ]: non-standard residue; d: D form. The star is where a group is joined. DOTA = O=C(O)CN1CCN(CC(=O)O)CCN(CC(=O)*)CCN(CC(=O)O)CC1; 1Nal = N[C@@H](Cc1cccc2ccccc12)C(=O)O; NMeNle = CCCC[C@H](NC)C(=O)O

Test: Biodistribution in BALB/c mice
Type: in vivo
Conditions: for tissue uptake at 0.5 h / tissue uptake at 1 h / tissue uptake at 10 min: female, BALB/c, mouse, iv, total radioactivity; for tissue uptake at 0.5 h: 30 min p.i.; for tissue uptake at 1 h: 1 h p.i.
Procedure: Metabolic biodistribution studies were performed in accordance with the ethical standards of the institution and approved by the Austrian Ministry of Science (BMWFW-66.011/0072-V/3b/2019). These studies were carried out in 5- to 7-week-old female BALB/c mice (n = 3) injected with [^177Lu]Lu-1 via a lateral tail vein. To allow monitoring of the metabolites by radio-HPLC, mice were injected with 30 MBq corresponding to 0.8 nmol total peptide. The mice were euthanized by cervical dislocation after different time points of 10 min, 30 min and 1 h p.i. and the urine and a venous blood sample were collected at the time of sacrifice. Liver and kidneys were dissected and homogenized in 20 mM HEPES buffer pH 7.3 at a ratio of 1:1 (v/v) with an Ultra-Turrax T8 homogenizer (IKA-Werke, Staufen, Germany) for 1 min at RT. Before radio-HPLC analysis, the samples (except urine) were treated with ACN at a ratio of 1:1 (v/v) to precipitate proteins, centrifuged at 2000× g for 2 min and diluted with water at a ratio of 1:1 (v/v). For HPLC analysis of the samples, the analytical HPLC system described above with a flow rate of 1 mL/min was used together with the following optimized water/ACN/0.1% TFA gradient to allow a better separation of [^177Lu]Lu-1 and the different radiometabolites: 0–7 min 1–7% ACN, 7–8 min 7–10% ACN, 8–18 min 10–18% ACN, 18–20 min 18–32% ACN, 20–27 min 32% ACN, 27–37 min […], 37–40 min 80% ACN, 40–40.1 min 80–1% ACN, 40.1–45 min 1% ACN. Urine was measured with the low-sensitivity loop of the radiodetector. The remaining samples were analyzed with the high-sensitivity loop due to the lower radioactivity present in blood, liver and kidney homogenate. To quantify the percentage of intact [^177Lu]Lu-1 and [^177Lu]Lu-M1 showing some overlap in the radiochromatogram when using the high-sensitivity loop of the radiodetector, the two radiopeptides were co-injected at different known ratios to enable a more accurate separation and integration of the two peaks (see supporting Figure S4). Mice from the metabolic biodistribution studies were subjected to a further dissection of all remaining tissues (blood, lung, heart, femur, spleen, muscle, intestine, pancreas and stomach). All organs, also including liver and kidneys, were weighed, and their radioactivity was measured in the gamma counter together with a standard and the residual body. To quantify the uptake of radioactivity in liver and kidneys, a part of liver and kidney homogenate was measured in the gamma counter to extrapolate the radioactivity for the whole organ.

[1] = blood, 30 MBq, read-out: uptake in blood
[2] = femur, 30 MBq, read-out: uptake in femur
[3] = heart, 30 MBq, read-out: uptake in heart
[4] = intestine, 30 MBq, read-out: uptake in intestine
[5] = kidneys, 30 MBq, read-out: uptake in kidneys
[6] = liver, 30 MBq, read-out: uptake in liver
[7] = lung, 30 MBq, read-out: uptake in lung
[8] = muscle, 30 MBq, read-out: uptake in muscle
[9] = pancreas, 30 MBq, read-out: uptake in pancreas
[10] = spleen, 30 MBq, read-out: uptake in spleen
[11] = stomach, 30 MBq, read-out: uptake in stomach

**Q.** What does the source list for CCCC[C@@H](C(=O)N[C@@H](CC(=O)O)C(=O)N[C@@H](Cc1cccc2ccccc12)C(N)=O)N(C)C(=O)[C@H](Cc1c[nH]c2ccccc12)NC(=O)CNC(=O)[C@H](Cc1ccc(O)cc1)NC(=O)[C@@H]1CCCN1C(=O)[C@@H](CCC(=O)O)NC(=O)CN1CCN(CC(=O)O)CCN(CC(=O)O)CCN(CC(=O)O)CC1 [[^177Lu]Lu-1, metal not drawn] ({DOTA}-[dE]PYGW[NMeNle]D[1Nal]-NH2)?
**A.** whole body activity (10 min p.i.): 61.78 % IA; whole body activity (1 h after injection): 12.27 % IA; tissue uptake at 0.5 h [1]: 5.08 %ID/g; tissue uptake at 1 h [1]: 2.05 %ID/g; tissue uptake at 10 min (blood, 10 min p.i., 30–40 MBq, 0.8 nmol, read-out: uptake in blood): 17.8 %ID/g; tissue uptake at 10 min (femur, 30 MBq, 10 min p.i., read-out: uptake in femur): 5.97 %ID/g; tissue uptake at 0.5 h [2]: 1.28 %ID/g; tissue uptake at 1 h [2]: 0.52 %ID/g; tissue uptake at 10 min (heart, 30 MBq, 10 min p.i., read-out: uptake in heart): 7.13 %ID/g; tissue uptake at 0.5 h [3]: 2.72 %ID/g; tissue uptake at 1 h [3]: 0.99 %ID/g; tissue uptake at 10 min (intestine, 30 MBq, 10 min p.i., read-out: uptake in intestine): 2.63 %ID/g; tissue uptake at 0.5 h [4]: 1.61 %ID/g; tissue uptake at 1 h [4]: 1.02 %ID/g; tissue uptake at 10 min (kidneys, 30 MBq, 10 min p.i., read-out: uptake in kidneys): 14.5 %ID/g; tissue uptake at 0.5 h [5]: 10.8 %ID/g; tissue uptake at 1 h [5]: 7.01 %ID/g; tissue uptake at 10 min (liver, 30 MBq, 10 min p.i., read-out: uptake in liver): 5.37 %ID/g; tissue uptake at 0.5 h [6]: 2.95 %ID/g; tissue uptake at 1 h [6]: 1.26 %ID/g; tissue uptake at 10 min (lung, 30 MBq, 10 min p.i., read-out: uptake in lung): 17.4 %ID/g; tissue uptake at 0.5 h [7]: 5.03 %ID/g; tissue uptake at 1 h [7]: 1.95 %ID/g; tissue uptake at 10 min (muscle, 30 MBq, 10 min p.i., read-out: uptake in muscle): 2.56 %ID/g; tissue uptake at 0.5 h [8]: 1.03 %ID/g; tissue uptake at 1 h [8]: 0.36 %ID/g; tissue uptake at 10 min (pancreas, 30 MBq, 10 min p.i., read-out: uptake in pancreas): 3.39 %ID/g; tissue uptake at 0.5 h [9]: 1.76 %ID/g; tissue uptake at 1 h [9]: 0.84 %ID/g; tissue uptake at 10 min (spleen, 30 MBq, 10 min p.i., read-out: uptake in spleen): 3.7 %ID/g; tissue uptake at 0.5 h [10]: 2 %ID/g; tissue uptake at 1 h [10]: 0.79 %ID/g; tissue uptake at 10 min (stomach, 30 MBq, 10 min p.i., read-out: uptake in stomach): 3.36 %ID/g; tissue uptake at 0.5 h [11]: 2.29 %ID/g; tissue uptake at 1 h [11]: 1.39 %ID/g; washout at 1 h versus 10 min p.i. (non-excretory organs (blood, lung, heart, femur, spleen and muscle)): 79–91%; percentage decrease of radioactivity at 1 h versus 10 min p.i. (pancreas): 75%; percentage decrease of radioactivity at 1 h versus 10 min p.i. (stomach): 59%
